Data from ChEMBL document CHEMBL1201862, “PubChem BioAssay data set” (2004).
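Results reflect a 48-hour exposure of cells in 96-well plates to compound at five concentrations. GI50 = concentration required for 50% inhibition of growth.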 The source made the active and inactive calls. No stated cut-off is given here; in the data, active = GI50 up to about 1.1 µM and inactive = higher.

Legend:
Assay in all cases: NCI anticancer screen, dose series, 48 h
[1] = test system: 786-0
[2] = test system: A549
[3] = test system: ACHN
[4] = test system: BT-549
[5] = test system: CAKI-1
[6] = test system: CCRF-CEM
[7] = test system: COLO 205
[8] = test system: DU-145
[9] = test system: EKVX
[10] = test system: HCC 2998
[11] = test system: HCT-116
[12] = test system: HCT-15
[13] = test system: HL-60
[14] = test system: HOP-62
[15] = test system: HOP-92
[16] = test system: Hs-578T
[17] = test system: IGROV-1
[18] = test system: K562
[19] = test system: LOX IMVI
[20] = test system: M14
[21] = test system: MCF7
[22] = test system: MDA-MB-231
[23] = test system: MDA-MB-435
[24] = test system: MDA-N
[25] = test system: MOLT-4
[26] = test system: Malme-3M
[27] = test system: NCI-H226
[28] = test system: NCI-H23
[29] = test system: NCI-H460
[30] = test system: NCI-H522
[31] = test system: NCI/ADR-RES
[32] = test system: OVCAR-3
[33] = test system: OVCAR-4
[34] = test system: OVCAR-5
[35] = test system: OVCAR-8
[36] = test system: PC-3
[37] = test system: RPMI-8226
[38] = test system: RXF 393
[39] = test system: SF-268
[40] = test system: SF-295
[41] = test system: SF-539
[42] = test system: SK-MEL-28
[43] = test system: SK-MEL-2
[44] = test system: SK-MEL-5
[45] = test system: SK-OV-3
[46] = test system: SN12C
[47] = test system: SNB-19
[48] = test system: SR
[49] = test system: SW-620
[50] = test system: TK-10
[51] = test system: UACC-257
[52] = test system: UO-31
[53] = test system: HT-29
[54] = test system: KM12
[55] = test system: SNB-75
[56] = test system: U-251
[57] = test system: UACC-62
[58] = test system: A498

Measured: GI50

COC(=O)CNC(=O)C(CSC(=O)OCC1c2ccccc2-c2ccccc21)NC(=O)CCC(NC(=O)OCC1c2ccccc2-c2ccccc21)C(=O)OC (centres undefined)
28 µM: [12]
inactive: [1] 13.7 µM | [2] 14.5 µM | [3] 55.1 µM | [4] 17.5 µM | [5] 7.5 µM | [6] 14 µM | [7] 29.4 µM | [8] > 100 µM | [9] 54.3 µM | [10] 21.2 µM | [11] 17.5 µM | [13] 19.1 µM | [14] 21.1 µM | [15] 13.5 µM | [16] 28.4 µM | [17] 17.8 µM | [18] 28.7 µM | [19] 3.27 µM | [20] 24 µM | [21] 18.5 µM | [22] 16.6 µM | [23] 25.7 µM | [24] 18.8 µM | [25] 21.2 µM | [26] 25.7 µM | [27] 99.1 µM | [28] 17.5 µM | [29] 24.4 µM | [30] 4.65 µM | [31] 41 µM | [32] 18.1 µM | [33] 16.9 µM | [34] 25.6 µM | [35] 16.8 µM | [36] 30.8 µM | [37] 23.1 µM | [38] 16.8 µM | [39] 21.3 µM | [40] 17.4 µM | [41] 19.2 µM | [42] 38.1 µM | [43] 16.9 µM | [44] 78.7 µM | [45] 30.3 µM | [46] > 100 µM | [47] 23.8 µM | [48] 12.6 µM | [49] 55.2 µM | [50] 36.7 µM | [51] 32.5 µM | [52] 18.7 µM

Cc1csc(N/C=C2\C(=O)Oc3ccccc3C2=O)n1
inactive: [1] 34.8 µM | [2] 38.7 µM | [3] 9.02 µM | [4] 25.6 µM | [5] 19.8 µM | [6] 35.8 µM | [7] 35 µM | [8] 29 µM | [9] 21.3 µM | [11] 28.4 µM | [15] 17.9 µM | [53] 36 µM | [16] 20.1 µM | [17] 24.7 µM | [18] 81.7 µM | [54] 40 µM | [19] 22.1 µM | [20] 35.8 µM | [21] 25.9 µM | [22] 20.2 µM | [23] 24.9 µM | [24] 33.2 µM | [25] 41 µM | [26] 20.5 µM | [27] 24.2 µM | [28] 18.2 µM | [30] 26.4 µM | [31] 35.7 µM | [32] 26.7 µM | [33] 32.7 µM | [34] 58.6 µM | [35] 32 µM | [36] 30.2 µM | [39] 26.5 µM | [41] 26.9 µM | [43] 13.4 µM | [44] 23.9 µM | [45] 7.05 µM | [47] 33.7 µM | [55] 10.4 µM | [49] 33.2 µM | [50] 17.1 µM | [56] 26.2 µM | [51] 45.2 µM | [57] 24.6 µM | [52] 11.7 µM
22.5 µM: [12]

CCSC1SC(c2ccccc2)(c2ccccc2)c2ccccc21 (centres undefined)
inactive: [1] 43.4 µM | [58] 22.5 µM | [2] 46 µM | [3] 44.7 µM | [4] 39.8 µM | [5] 48.6 µM | [6] 54 µM | [7] 35 µM | [8] 64.7 µM | [9] 51.3 µM | [10] 45.1 µM | [11] 30.8 µM | [14] > 100 µM | [15] 30.8 µM | [53] 34.6 µM | [16] 54.3 µM | [17] 75.3 µM | [18] 62.4 µM | [54] 38.5 µM | [19] 45.1 µM | [20] 31.2 µM | [21] 33.7 µM | [22] 73.1 µM | [23] 33.7 µM | [24] 35.9 µM | [25] 25.4 µM | [26] 34.1 µM | [27] 31.6 µM | [28] 47.9 µM | [29] 36.9 µM | [30] 43.5 µM | [31] 43.2 µM | [32] 23.8 µM | [33] 55.1 µM | [34] 45.4 µM | [35] 64.7 µM | [36] 39.4 µM | [37] 32.8 µM | [38] 19.5 µM | [39] 93.1 µM | [40] 70 µM | [41] > 100 µM | [42] 79.8 µM | [44] 26.4 µM | [45] > 100 µM | [46] 38.3 µM | [47] > 100 µM | [55] 87.9 µM | [49] 54.8 µM | [50] 67.3 µM | [56] 92.3 µM | [51] 26.4 µM | [57] 53.6 µM | [52] 47.5 µM
42.1 µM: [12]
